Drawing on PubChem BioAssay (NCI), this text covers TGI for 14 compounds.

Each structure is given as a SMILES string.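 How tested: cells in 96-well plates exposed to compound for 48 hours at five concentrations. TGI marks complete inhibition of growth.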 Some results are limits rather than exact numbers.

Common to all, as to assay: NCI anticancer screen, dose series, 48 h
The subject of assay [1] is NCI-H460 lung.
The subject of assay [2] is OVCAR-5 ovarian.
In assay [3] the test system is RXF 393 renal.
The subject of assay [4] is HCT-15 colon.
Assay [5] has as its system MCF7 breast.
Assay [6] concerns LOX IMVI melanoma.
The subject of assay [7] is CCRF-CEM leukemia.
Assay [8] relates to OVCAR-4 ovarian.
Assay [9] deals with MDA-N.
For assay [10], the system named is M14 melanoma.

As to `CC(=O)OC(CC(C)C)P1(=O)N(CC(C)(C)C)[C@@H]2CCCC[C@H]2N1CC(C)(C)C` (some centres undefined), the TGI in assay [1] came to 22 µM; in [2] it was 22.9 µM; in assay [3] it was 18.1 µM; in [4] it was 23.4 µM; in [5], 17.4 µM; in [6], 25 µM. Also, the TGI was over 93.3 µM in [7], 23.6 µM in assay [8], 21.3 µM in assay [9] and 19.8 µM in [10].
Turning to `COC(=O)C1=C(O)C(C(=O)OC)[C@]2(O)[C@H](C(=O)OC)[C@H]1C[C@@H](c1cccc(OC)c1)[C@H]2C(=O)OC` (some centres undefined), the TGI in assay [1] was 65.7 µM; in [2], 66.4 µM; in [3] it was 43.1 µM; in assay [4] it was 86.3 µM; in [5], over 100 µM; in assay [6], over 100 µM. Besides, the TGI in assay [8] is 96.4 µM; in assay [9] it was 64.4 µM; in [10], over 100 µM.
Regarding `CC(=O)N1CC(C)(C)c2c1cc(C)c(O)c2C`, the TGI in assay [1], in [2], in assay [3], in assay [4], in [5] and in assay [6] was over 100 µM each time. Further, the TGI in assay [7], in [8], in assay [9] and in assay [10] was over 100 µM each time.
Consider `O=C(O)C(F)(F)C(F)(F)C(F)(F)C(F)(F)C(=O)O`, for which the TGI in assay [1], in assay [2], in assay [3], in [4], in [5] and in assay [6] was over 100 µM in each case. The TGI in assay [7], in [8], in [9] and in assay [10] was over 100 µM throughout.
`CC1(C)C2CCC1(C)C(N/C(=C(/C(Cl)=C(Cl)Cl)[N+](=O)[O-])n1nnc3ccccc31)C2` (centres undefined): the TGI in assay [1] was over 100 µM; in assay [2] it was over 100 µM; in [3] it was 36.5 µM; in [4], 93.4 µM; in assay [5] it was over 100 µM; in [6] it was over 100 µM. In addition, the TGI in [7] is over 100 µM; in assay [8], 60.7 µM; in assay [9] it was over 100 µM; in assay [10] it was over 100 µM.
Regarding `CCN(CC)c1ccc2c(c1)Oc1ccc(N(C(C)=O)c3ccccc3)cc1C21OC(=O)c2ccccc21` (centres undefined), the TGI in assay [1], in assay [2], in assay [3], in assay [4], in assay [5] and in [6] was over 100 µM throughout. Further, the TGI in assay [7], in assay [8], in assay [9] and in assay [10] was over 100 µM in each case.
Turning to `CSc1nc2c(c(=O)n1C)N=C(c1ccc(Cl)cc1)CC(c1ccccc1)N2` (centres undefined), the TGI was over 100 µM in assay [2]; 75.4 µM in assay [3]; 27.2 µM in assay [5]; 54.3 µM in assay [6]; 72.6 µM in assay [7]; 23.7 µM in [8]. Moreover, the TGI in assay [9] was found to be 30.3 µM; in assay [10], 34.7 µM.
For `OCc1c2c(cc3c1CC1(C3)Cc3cc4c(c(CO)c3C1)CCC4)CCC2`, the TGI in [2] worked out at 34.6 µM; in assay [3] it was 32.7 µM; in assay [4], 34.6 µM; in [5], 44.6 µM; in [6], 28.7 µM; in assay [7], 25.9 µM. Besides, the TGI in [8] was found to be 23.5 µM; in assay [9] it was 29.2 µM; in assay [10] it was 32.9 µM.
Turning to `CC(/C=N/N(C)C1=NCCCCN1)=N/N(C)C1=NCCCCN1`, the TGI in assay [1], in assay [2], in assay [3], in assay [4], in [5] and in [6] was over 100 µM throughout. The TGI in assay [7], in assay [8] and in [9] was over 100 µM in each case.
For the compound `CC(C)=NNc1cnnc2ccc([N+](=O)[O-])cc12`, the TGI in assay [1], in assay [2], in assay [3], in [4], in assay [5] and in assay [7] was over 100 µM in each case. Also, the TGI in [9] and in assay [10] was over 100 µM in each case.
On to `CCOP(=O)(CC1CC(O)(CNc2cc(Cl)nc(N)n2)C1)OCC` (centres undefined), for which the TGI in assay [1], in assay [2], in assay [3], in assay [4], in assay [5] and in [6] was over 100 µM throughout. The TGI in [7], in assay [8] and in [9] was over 100 µM in each case.
Consider `Cc1ccc2ccc(=O)oc2c1`, for which the TGI in [1], in assay [2], in assay [3], in assay [5], in assay [6] and in [7] was over 100 µM each time. Moreover, the TGI in assay [8], in assay [9] and in assay [10] was over 100 µM throughout.
As for `Cc1ccc(C(=O)Cc2nc3ncccc3[nH]c2=O)cc1`, the TGI in assay [1], in assay [2], in [3], in [4], in assay [5] and in assay [7] was over 100 µM each time. Moreover, the TGI in assay [8] was 84 µM; in assay [9], over 100 µM; in assay [10], over 100 µM.
As for `C/C=C1/CN2[C@@H](C3=C[C@@H]4[C@@H]5N(C3=O)c3ccccc3[C@@]53CCN5C/C(=C/C)[C@@H]4C[C@H]53)C[C@@]34c5ccccc5N5C(=O)CC=C([C@H]1C[C@H]23)[C@H]54`, the TGI in [1] came to 15.4 µM; in assay [2] it was 15 µM; in [3] it was 10.6 µM; in [4], 10.3 µM; in assay [5] it was 10.7 µM; in [7], 2.94 µM. The TGI in assay [8] amounted to 19.9 µM; in [9], 10.4 µM; in [10], 2.37 µM.
